From ChEMBL document CHEMBL1156293, “Synthesis of a novel tricyclic 1,2,3,4,4a,5,6,10b-octahydro-1,10-phenanthroline ring system and CXCR4 antagonists with potent activity against HIV-1” (Bioorg Med Chem Lett, 2010)
Values belong to the molecule of their own block, whether it stands above or below them.

Tests used:
[1] = Cytotoxicity against human HOS cells; type: cell-based
[2] = tested on: Human immunodeficiency virus 1; assay: Antiviral activity against HIV1 3B in human HOS cells expressing human […]/pHIV-LTR-luciferase assessed as blockade of viral infection into cells; type: functional, organism-based; conditions: Human immunodeficiency virus 1, 3B
[3] = Volume of distribution at steady state in rat at 1 mg/kg, iv; type: ADME, organism-based; parameters: dose 1 mg/kg, route intravenous; conditions: in vivo, read-out: Vdss
[4] = tested on: Rattus norvegicus; assay: Dose normalized AUC in rat at 3 mg/kg, po; type: ADME, organism-based; parameters: dose 3 mg/kg, route oral; conditions: in vivo
[5] = Half life in rat at 3 mg/kg, po; type: ADME, organism-based; parameters: dose 3 mg/kg, route oral; conditions: in vivo
[6] = Volume of distribution at steady state in dog at 1 mg/kg, iv; type: ADME, organism-based, Canis lupus familiaris; parameters: dose 1 mg/kg, route intravenous; conditions: in vivo, read-out: Vdss
[7] = tested on: Canis familiaris; assay: Dose normalized AUC in dog at 3 mg/kg, po; type: ADME, organism-based, Canis lupus familiaris; parameters: dose 3 mg/kg, route oral; conditions: in vivo
[8] = Half life in dog at 3 mg/kg, po; type: ADME, organism-based, Canis lupus familiaris; parameters: dose 3 mg/kg, route oral; conditions: in vivo

IC50 [2]: 9 nM
SMILES: CN1CCC(N(C)c2cccc3nc(CN4CCC[C@H]5CCc6cccnc6[C@H]54)cn23)C1 (some centres undefined)
CC50 [1]: 1.57 µM

IC50 [2]: 100 nM
SMILES: CN1CCN(c2cccc3nc(CN4CCC[C@@H]5CCc6cccnc6[C@@H]54)cn23)CC1
CC50 [1]: 8.5 µM

IC50 [2]: 530 nM
SMILES: CN(C)CCCn1c(CN2CCC[C@@H]3CCc4cccnc4[C@@H]32)nc2ccccc21
CC50 [1]: 4.2 µM

IC50 [2]: 140 nM
SMILES: CN(C)CCCn1c(CN2CCC[C@@H]3CCc4cccnc4[C@H]32)nc2ccccc21
CC50 [1]: 3.5 µM

IC50 [2]: 21 nM
SMILES: CN(C)[C@@H]1CCN(c2cccc3nc(CN4CCC[C@H]5CCc6cccnc6[C@H]54)cn23)C1
CC50 [1]: 1.6 µM

Vd [3]: 5.5 L/kg
AUC [4]: 100 ng·h/mL/(mg/kg)
half-life [5]: 294 min
Vd [6]: 7.6 L/kg
AUC [7]: 160 ng·h/mL/(mg/kg)
half-life [8]: 510 min
SMILES: CN1CCN(c2cccc3nc(CN(C)[C@H]4CCCc5cccnc54)cn23)CC1

IC50 [2]: 32 nM
SMILES: CN1CCN(c2cccc3nc(CN4CCCC5CCc6cccnc6C54)cn23)CC1 (racemic)
CC50 [1]: 9.6 µM

Second part, the molecule before the results:

SMILES: CN1CCN(c2cccc3nc(CN4CCC[C@@H]5CCc6cccnc6[C@H]54)cn23)CC1
CC50 [1]: 9.9 µM
IC50 [2]: 50 nM

SMILES: CN(C)CCCn1c(CN2CCC[C@H]3CCc4cccnc4[C@@H]32)nc2ccccc21
CC50 [1]: 3.7 µM
IC50 [2]: 330 nM

SMILES: CN1CCC(N(C)c2cccc3nc(CN4CCC[C@H]5CCc6cccnc6[C@H]54)cn23)CC1
CC50 [1]: 1.3 µM
IC50 [2]: 38 nM

SMILES: c1cnc2c(c1)CC[C@@H]1CCCN(Cc3cn4c(N5CCN6CCCC6C5)cccc4n3)[C@H]21 (some centres undefined)
CC50 [1]: 2.98 µM
IC50 [2]: 2 nM

SMILES: c1cnc2c(c1)CC[C@@H]1CCCN(Cc3cn4c(N5CCOCC5)cccc4n3)[C@H]21
CC50 [1]: 6.6 µM
IC50 [2]: 1200 nM

SMILES: CN(C)CCN(C)c1cccc2nc(CN3CCC[C@H]4CCc5cccnc5[C@H]43)cn12
CC50 [1]: 1.45 µM
IC50 [2]: 5 nM

SMILES: CN(C)C1CCN(c2cccc3nc(CN4CCC[C@H]5CCc6cccnc6[C@H]54)cn23)CC1
CC50 [1]: 3.85 µM
IC50 [2]: 15 nM

SMILES: CN(C)CCCn1c(CN2CCC[C@H]3CCc4cccnc4[C@H]32)nc2ccccc21
CC50 [1]: 6 µM
IC50 [2]: 35 nM
